These results are taken from patent publication US20150158868A1, “COMPOUNDS USEFUL AS INHIBITORS OF ATR KINASE” (Vertex Pharmaceuticals Incorporated, priority 2013, published 2015).

For assay [1], the target named is T1, ATR kinase (full-length ATR) (Homo sapiens, UniProt Q13535).
T1 construct: Assays were carried out at 25° C. in the presence of 5 nM full-length ATR
Put plainly: ATR Inhibition Assay (radioactive-phosphate incorporation). Type of assay: biochemical. Conditions: Ki(app); 5 nM full-length ATR, 10 μM ATP, 25° C. The method, then: Compounds were screened for their ability to inhibit ATR kinase using a radioactive-phosphate incorporation assay. Assays were carried out in a mixture of 50 mM Tris/HCl (pH 7.5), 10 mM MgCl2 and 1 mM DTT. Final substrate concentrations were 10 μM [γ-33P]ATP (3 mCi 33P ATP/mmol ATP, Perkin Elmer) and 800 μM target peptide (ASELPASQPQPFSAKKK).
Assays were carried out at 25° C. in the presence of 5 nM full-length ATR. An assay stock buffer solution was prepared containing all of the reagents listed above, with the exception of ATP and the test compound of interest. 13.5 μL of the stock solution was placed in a 96 well plate followed by addition of 2 μL of DMSO stock containing serial dilutions of the test compound (typically starting from a final concentration of 15 μM with 3-fold serial dilutions) in duplicate (final DMSO concentration 7%). The plate was pre-incubated for 10 minutes at 25° C. and the reaction initiated by addition of 15 μL [γ-33P]ATP (final concentration 10 μM).
The reaction was stopped after 24 hours by the addition of 30 μL 0.1M phosphoric acid containing 2 mM ATP. A multiscreen phosphocellulose filter 96-well plate (Millipore, Cat no. MAPHN0B50) was pretreated with 100 μL 0.2M phosphoric acid prior to the addition of 45 μL of the stopped assay mixture. The plate was washed with 5×200PL 0.2M phosphoric acid. After drying, 100 μL Optiphase ‘SuperMix’ liquid scintillation cocktail (Perkin Elmer) was added to the well prior to scintillation counting (1450 Microbeta Liquid Scintillation Counter, Wallac).
After removing mean background values for all of the data points, Ki(app) data were calculated from non-linear regression analysis of the initial rate data using the Prism software package (GraphPad Prism version 3.0cx for Macintosh, GraphPad Software, San Diego Calif., USA).
Compounds with a Ki value of <0.01 μM are marked with “+++.” Compounds with a Ki value >0.01 μM but <1 μM are marked with “++.” Compounds with a Ki value >1 μM but <5 μM are marked with “+.”

Assay [2] deals with HCT116 colorectal cancer cells. Nature of the assay: Cisplatin Sensitization Assay (96 h cell viability MTS). The assay is classed as cell-based. Conditions: concentration of compound required to reduce the IC50 of Cisplatin alone by at least 3-fold; HCT116, 96 h MTS. The procedure:
Compounds can be screened for their ability to sensitize HCT116 colorectal cancer cells to Cisplatin using a 96 h cell viability (MTS) assay. […] Compounds and Cisplatin are then both added simultaneously to the cell media in 2-fold serial dilutions from a top final concentration of 10 μM as a full matrix of concentrations in a final cell volume of 200 μl, and the cells are then incubated at 37° C. in 5% CO2. After 96 h, 40 μl of MTS reagent (Promega G358a) is added to each well and the cells are incubated for 1 h at 37° C. in 5% CO2. Finally, absorbance is measured at 490 nm using a SpectraMax Plus 384 reader (Molecular Devices) and the concentration of compound required to reduce the IC50 of Cisplatin alone by at least 3-fold (to 1 decimal place) can be reported.
Compounds with a Cisplatin sensitization value of <0.02 μM are marked with “+++.” Compounds with a Cisplatin sensitization value >0.02 μM but <0.2 μM are marked with “++.” Compounds with a Cisplatin sensitization value >0.2 μM but <5 μM are marked with “+.”

The target in assay [3] is T2, ATR kinase, in the presence of partner proteins ATRIP, CLK2 and TopBP1 (Homo sapiens, UniProt Q13535).
T2 construct: in the presence of 4 nM full-length ATR, 40 nM full-length ATRIP
T2 sequence (Q13535 whole entry): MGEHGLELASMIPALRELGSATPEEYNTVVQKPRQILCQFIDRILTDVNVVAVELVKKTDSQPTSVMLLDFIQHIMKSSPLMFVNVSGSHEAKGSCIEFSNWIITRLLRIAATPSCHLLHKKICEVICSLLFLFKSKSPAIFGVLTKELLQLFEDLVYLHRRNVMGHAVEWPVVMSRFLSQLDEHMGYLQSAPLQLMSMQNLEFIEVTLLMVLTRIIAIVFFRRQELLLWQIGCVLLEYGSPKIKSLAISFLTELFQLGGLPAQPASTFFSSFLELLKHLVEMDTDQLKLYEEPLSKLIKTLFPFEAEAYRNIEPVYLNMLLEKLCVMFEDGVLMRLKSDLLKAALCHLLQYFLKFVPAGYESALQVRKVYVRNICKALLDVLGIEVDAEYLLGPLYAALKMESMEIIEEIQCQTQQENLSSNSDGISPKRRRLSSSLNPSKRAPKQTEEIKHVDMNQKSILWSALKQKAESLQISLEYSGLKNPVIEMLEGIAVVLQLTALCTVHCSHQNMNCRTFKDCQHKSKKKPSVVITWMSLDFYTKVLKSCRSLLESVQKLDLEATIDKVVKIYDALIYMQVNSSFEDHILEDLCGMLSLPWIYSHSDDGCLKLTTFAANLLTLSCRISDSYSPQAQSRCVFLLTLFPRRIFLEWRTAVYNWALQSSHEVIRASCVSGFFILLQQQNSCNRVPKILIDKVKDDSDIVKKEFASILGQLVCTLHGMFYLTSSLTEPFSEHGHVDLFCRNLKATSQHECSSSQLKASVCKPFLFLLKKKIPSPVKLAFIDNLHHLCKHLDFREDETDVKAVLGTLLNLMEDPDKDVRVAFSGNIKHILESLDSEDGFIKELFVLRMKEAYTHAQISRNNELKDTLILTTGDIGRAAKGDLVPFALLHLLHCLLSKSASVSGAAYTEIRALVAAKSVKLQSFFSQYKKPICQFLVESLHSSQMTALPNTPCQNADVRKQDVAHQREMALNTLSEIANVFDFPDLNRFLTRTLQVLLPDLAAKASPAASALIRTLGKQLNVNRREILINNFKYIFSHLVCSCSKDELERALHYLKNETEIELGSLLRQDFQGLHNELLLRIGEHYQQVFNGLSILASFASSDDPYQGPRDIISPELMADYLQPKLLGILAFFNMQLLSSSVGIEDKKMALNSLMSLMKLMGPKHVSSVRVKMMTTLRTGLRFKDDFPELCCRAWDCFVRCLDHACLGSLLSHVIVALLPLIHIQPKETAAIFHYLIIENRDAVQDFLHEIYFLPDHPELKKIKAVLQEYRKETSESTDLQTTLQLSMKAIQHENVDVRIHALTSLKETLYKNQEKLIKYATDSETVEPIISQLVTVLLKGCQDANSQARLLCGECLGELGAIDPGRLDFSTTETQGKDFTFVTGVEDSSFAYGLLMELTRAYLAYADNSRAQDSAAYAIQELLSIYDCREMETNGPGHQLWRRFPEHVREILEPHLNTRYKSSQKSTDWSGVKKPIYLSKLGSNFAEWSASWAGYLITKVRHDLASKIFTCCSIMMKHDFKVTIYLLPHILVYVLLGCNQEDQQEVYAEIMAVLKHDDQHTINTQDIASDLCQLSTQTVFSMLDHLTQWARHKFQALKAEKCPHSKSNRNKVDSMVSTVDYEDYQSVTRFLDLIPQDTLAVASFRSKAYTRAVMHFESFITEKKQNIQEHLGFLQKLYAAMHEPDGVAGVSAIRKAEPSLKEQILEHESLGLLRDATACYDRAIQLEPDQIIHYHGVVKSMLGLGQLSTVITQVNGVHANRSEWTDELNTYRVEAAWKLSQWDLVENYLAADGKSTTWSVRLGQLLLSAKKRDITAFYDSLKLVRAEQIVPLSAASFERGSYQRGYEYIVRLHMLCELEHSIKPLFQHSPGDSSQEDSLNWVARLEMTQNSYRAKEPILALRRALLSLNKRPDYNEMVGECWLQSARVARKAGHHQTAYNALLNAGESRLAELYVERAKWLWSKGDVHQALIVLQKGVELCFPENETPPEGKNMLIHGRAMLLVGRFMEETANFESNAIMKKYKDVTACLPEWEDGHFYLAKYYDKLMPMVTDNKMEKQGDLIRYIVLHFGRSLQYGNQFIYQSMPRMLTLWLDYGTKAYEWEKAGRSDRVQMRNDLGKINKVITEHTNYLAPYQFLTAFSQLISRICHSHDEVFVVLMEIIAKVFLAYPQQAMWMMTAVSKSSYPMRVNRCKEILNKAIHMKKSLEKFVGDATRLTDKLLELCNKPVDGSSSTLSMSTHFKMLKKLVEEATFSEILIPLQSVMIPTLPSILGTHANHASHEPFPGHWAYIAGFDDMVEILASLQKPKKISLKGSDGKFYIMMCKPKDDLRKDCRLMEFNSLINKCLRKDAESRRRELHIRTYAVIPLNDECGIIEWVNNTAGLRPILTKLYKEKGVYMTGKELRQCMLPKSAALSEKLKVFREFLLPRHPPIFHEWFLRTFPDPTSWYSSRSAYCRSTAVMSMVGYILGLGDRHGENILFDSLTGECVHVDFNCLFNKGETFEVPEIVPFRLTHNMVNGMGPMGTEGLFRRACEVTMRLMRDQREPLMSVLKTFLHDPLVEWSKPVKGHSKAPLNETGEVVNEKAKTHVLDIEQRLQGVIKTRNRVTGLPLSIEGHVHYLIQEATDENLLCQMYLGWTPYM
T2 sequence (Q8WXE1 whole entry partner): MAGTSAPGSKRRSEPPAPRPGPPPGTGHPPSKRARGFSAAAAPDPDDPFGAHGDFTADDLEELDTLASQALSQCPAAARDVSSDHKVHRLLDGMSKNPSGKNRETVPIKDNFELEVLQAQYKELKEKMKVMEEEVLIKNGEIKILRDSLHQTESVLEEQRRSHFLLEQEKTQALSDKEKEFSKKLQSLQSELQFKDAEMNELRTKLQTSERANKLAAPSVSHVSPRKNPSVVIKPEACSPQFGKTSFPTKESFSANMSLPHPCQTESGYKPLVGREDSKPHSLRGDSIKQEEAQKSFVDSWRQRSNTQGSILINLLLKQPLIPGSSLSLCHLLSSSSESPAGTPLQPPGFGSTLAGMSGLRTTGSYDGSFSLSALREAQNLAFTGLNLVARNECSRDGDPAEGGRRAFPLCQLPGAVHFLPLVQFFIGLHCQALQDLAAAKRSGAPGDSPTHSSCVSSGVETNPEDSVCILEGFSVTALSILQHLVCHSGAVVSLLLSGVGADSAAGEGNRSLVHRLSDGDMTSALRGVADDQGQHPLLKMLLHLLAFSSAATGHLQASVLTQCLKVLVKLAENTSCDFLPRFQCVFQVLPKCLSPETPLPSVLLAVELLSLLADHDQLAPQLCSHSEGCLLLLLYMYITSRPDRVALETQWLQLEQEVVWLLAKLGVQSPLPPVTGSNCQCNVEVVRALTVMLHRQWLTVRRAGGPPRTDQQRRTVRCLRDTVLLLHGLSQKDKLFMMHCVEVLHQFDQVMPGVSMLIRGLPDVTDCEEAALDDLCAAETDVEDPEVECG
T2 sequence (Q92547 978-1192 partner limits assumed): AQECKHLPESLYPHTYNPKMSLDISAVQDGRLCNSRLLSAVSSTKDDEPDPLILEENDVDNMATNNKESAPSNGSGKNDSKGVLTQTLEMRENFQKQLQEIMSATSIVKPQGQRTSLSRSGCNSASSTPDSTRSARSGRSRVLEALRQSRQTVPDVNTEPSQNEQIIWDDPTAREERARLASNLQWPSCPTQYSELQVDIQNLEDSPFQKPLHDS
Nature of the assay: ATR-Complex Inhibition Assay (radioactive-phosphate incorporation). Type of assay: biochemical. Conditions: Ki(app); 4 nM full-length ATR with ATRIP, CLK2 and TopBP1(A891-S1105), 10 μM ATP, 25° C. The method, then:
Compounds were screened for their ability to inhibit ATR kinase, in the presence of partner proteins ATRIP, CLK2 and TopBP1, using a radioactive-phosphate incorporation assay. Assays were carried out in a mixture of 50 mM Tris/HCl (pH 7.5), 10 mM MgCl2 and 1 mM DTT. Final substrate concentrations were 10 μM [g-33P]ATP (3.5 μCi 33P ATP/nmol ATP, Perkin Elmer, Massachusetts, USA) and 800 μM target peptide (ASELPASQPQPFSAKKK, Isca Biochemicals, Cambridgeshire, UK).
Assays were carried out at 25° C. in the presence of 4 nM full-length ATR, 40 nM full-length ATRIP, 40 nM full-length CLK2 and 600 nM TopBP1(A891-S1105). An enzyme stock buffer solution was prepared containing all of the reagents listed above, with the exception of target peptide, ATP and the test compound of interest. This enzyme stock was pre-incubated for 30 minutes at 25° C. 8.5 μL of the enzyme stock solution was placed in a 96-well plate followed by addition of 5 μl of target peptide and 2 μL of DMSO stock containing serial dilutions of the test compound (typically starting from a final concentration of 1.5 μM with 2.5-fold serial dilutions) in duplicate (final DMSO concentration 7%). The plate was pre-incubated for 10 minutes at 25° C. and the reaction initiated by addition of 15 μL [g-33P]ATP (final concentration 10 μM).
The reaction was stopped after […] by the addition of 30 μL 0.3 M phosphoric acid containing 2 mM ATP. A phosphocellulose filter 96-well plate (Multiscreen HTS MAPHNOB50, Merck-Millipore, Massachusetts, USA) was pretreated with 100 μL 0.1 M phosphoric acid prior to the addition of 45 μL of the stopped assay mixture. The plate was washed with 5×200 μL 0.1 M phosphoric acid. […]
After removing mean background values for all of the data points, Ki(app) data were calculated from non-linear regression analysis of the initial rate data using the Prism software package (GraphPad Prism version 6.0c for Macintosh, GraphPad Software Inc., San Diego, USA). […]

T1 sequence (Q13535 whole entry): as the sequence (Q13535 whole entry) above

For `CCOc1ccncc1NC(=O)c1c(N)nn2ccccc12` [I-B-1, 2-amino-N-(4-ethoxypyridin-3-yl)pyrazolo[1,5-a]pyridine-3-carboxamide], the figures for the Ki in assay [1] and in assay [3] were 10 to 1000 nM and < 10 nM, respectively. In addition, the “Cisplatin Sensitization Assay” value in assay [2] is “+++ (Compounds with a Cisplatin sensitization value of <0.02 μM)”.

Consider `CN1CCC(Oc2ccncc2NC(=O)c2c(N)nc3ccc(C(F)(F)F)nn23)CC1` [I-A-2, 2-amino-N-(4-((1-methylpiperidin-4-yl)oxy)pyridin-3-yl)-6-(trifluoromethyl)imidazo[1,2-b]pyridazine-3-carboxamide], for which the Ki in assay [1] is 10 to 1000 nM. Moreover, in assay [2], the “Cisplatin Sensitization Assay” value was “++ (Compounds with a Cisplatin sensitization value >0.02 μM but <0.2 μM)”.

`CN1CCC(Oc2ccncc2NC(=O)c2c(N)nc3cccnn23)CC1` [I-A-1, 2-amino-N-(4-((1-methylpiperidin-4-yl)oxy)pyridin-3-yl)imidazo[1,2-b]pyridazine-3-carboxamide]: the Ki in assay [1] was 10 to 1000 nM; in assay [3], < 10 nM. Also, in assay [2], the “Cisplatin Sensitization Assay” value is on record as “++ (Compounds with a Cisplatin sensitization value >0.02 μM but <0.2 μM)”.

As to `CN1CCN(C(=O)C2CCN(c3c(F)cncc3NC(=O)c3c(N)nn4ccccc34)CC2)CC1` [I-B-3, 2-amino-N-(5-fluoro-4-(4-(4-methylpiperazine-1-carbonyl)piperidin-1-yl)pyridin-3-yl)pyrazolo[1,5-a]pyridine-3-carboxamide], the Ki in assay [1] is 1000 to 5000 nM; in assay [3], < 10 nM. Moreover, the “Cisplatin Sensitization Assay” value in assay [2] was “+ (Compounds with a Cisplatin sensitization value >0.2 μM but <5 μM)”.

`CN1CCN(C(=O)C2CCN(c3c(F)cncc3NC(=O)c3c(N)nc4cccnn34)CC2)CC1` [I-A-3, 2-amino-N-(5-fluoro-4-(4-(4-methylpiperazine-1-carbonyl)piperidin-1-yl)pyridin-3-yl)imidazo[1,2-b]pyridazine-3-carboxamide]: the Ki in assay [1] is 10 to 1000 nM. Besides, in assay [2], the “Cisplatin Sensitization Assay” value is given as “+++ (Compounds with a Cisplatin sensitization value of <0.02 μM)”.
